Here are results for two molecules from US11905259B1, “2-(benzo[d]oxazol-2-yl)-N′-(4-(dimethylamino)benzoyloxy)acetimidamide as an antimicrobial compound” (KING FAISAL UNIVERSITY, priority 2023, dated 2024).

One data set deals with Aspergillus flavus. Description: agar plate disc-diffusion, antifungal activity. The class given is cell-based. As to the method:
(§1) The agar plate disc-diffusion method was applied. Sterilized filter papers (6 mm in diameter) were wetted with 10 μL of a solution of 2-(benzo[d]oxazol-2-yl)-N′-(4-(dimethylamino)benzoyloxy)acetimidamide (3) to be tested, containing 10 mg/mL in DMSO, and the discs were allowed to air dry. The discs were then placed onto the surface of agar plates (nutrient agar for bacteria and Sabouraud's dextrose agar for fungi) seeded with the test organism. Each plate contained 15 mL of the agar medium, previously seeded with 0.2 mL of the broth culture of each organism pregrown for 18 hours. The plates were incubated at 37° C. for 48 hours, and 72 hours for fungi. The inhibition zones was measured in mm. Discs impregnated with DMSO were used as a control, and its inhibition zone was subtracted from the tested compound actual inhibition zone.

A further data set deals with Bacillus cereus. Description: agar plate disc-diffusion, antibacterial activity. The class given is cell-based. As to the method:
as §1, with “Sterilized filter papers (6 mm in diameter) were wetted with 10 μL of a solution of 2-(benzo[d]oxazol-2-yl)-N′-(4-(dimethylamino)benzoyloxy)acetimidamide (3) to be tested, containing 10 mg/mL in DMSO, and the discs were allowed to air dry.” left out
In general terms: A growth-free zone around the sample is the usual read-out of agar diffusion tests.

A further data set has as its system Staphylococcus aureus. Put plainly: agar plate disc-diffusion, antibacterial activity. It is filed as cell-based. As to the method:
as §1, with “Sterilized filter papers (6 mm in diameter) were wetted with 10 μL of a solution of 2-(benzo[d]oxazol-2-yl)-N′-(4-(dimethylamino)benzoyloxy)acetimidamide (3) to be tested, containing 10 mg/mL in DMSO, and the discs were allowed to air dry.” left out

The subject of another data set is Pseudomonas aeruginosa. Description: agar plate disc-diffusion, antibacterial activity. It is filed as cell-based. As to the method: as §1, with “Sterilized filter papers (6 mm in diameter) were wetted with 10 μL of a solution of 2-(benzo[d]oxazol-2-yl)-N′-(4-(dimethylamino)benzoyloxy)acetimidamide (3) to be tested, containing 10 mg/mL in DMSO, and the discs were allowed to air dry.” left out

The subject of another data set is Escherichia coli. Description: agar plate disc-diffusion, antibacterial activity. It is filed as cell-based. As to the method: as §1, with “Sterilized filter papers (6 mm in diameter) were wetted with 10 μL of a solution of 2-(benzo[d]oxazol-2-yl)-N′-(4-(dimethylamino)benzoyloxy)acetimidamide (3) to be tested, containing 10 mg/mL in DMSO, and the discs were allowed to air dry.” left out

In data set [1] the test system is Chrysosporium keratinophilum. Put plainly: agar plate disc-diffusion, antifungal activity. It is filed as cell-based. As to the method: as §1, with “Sterilized filter papers (6 mm in diameter) were wetted with 10 μL of a solution of 2-(benzo[d]oxazol-2-yl)-N′-(4-(dimethylamino)benzoyloxy)acetimidamide (3) to be tested, containing 10 mg/mL in DMSO, and the discs were allowed to air dry.” left out

The test system of the next data set is different microbes. Put plainly: antimicrobial screening, overall statement. The class given is cell-based. To be noted: against different microbes (bacteria and fungi screened). As to the method:
as §1

The mark [2] stands for this setting: A = concentration of comp. = 10,000 uL.
[3] abbreviates: B = concentration of comp. = 30,000 uL.
Where [4] appears, read: C = concentration of comp. = 50,000 uL.

As to `O=C(O)c1cn(C2CC2)c2cc(N3CCNCC3)c(F)cc2c1=O` [Cip., ciprofloxacin, reference compound], the inhibition zone is reported as 28 mm in the data set with Aspergillus flavus (setting [2]); 31 mm in the data set on Aspergillus flavus (setting [3]); 43 mm with Aspergillus flavus (setting [4]); 29 mm in the data set on Bacillus cereus (setting [2]); 31 mm with Bacillus cereus (setting [3]); 42 mm in the data set on Bacillus cereus (setting [4]). Also, the inhibition zone in the data set on Staphylococcus aureus (setting [2]) worked out at 43 mm; in the data set with Staphylococcus aureus (setting [3]), 44 mm; with Staphylococcus aureus (C = concentration of comp.), 53 mm; in the data set with Pseudomonas aeruginosa (setting [2]) it was 29 mm; with Pseudomonas aeruginosa (setting [3]), 30 mm; in the data set on Pseudomonas aeruginosa (C =), 53 mm. Also, the inhibition zone in the data set on Escherichia coli (setting [2]) was 30 mm; with Escherichia coli (setting [3]) it was 39 mm; with Escherichia coli (setting [4]), 60 mm; in data set [1] (setting [2]), 30 mm; in data set [1] (setting [3]), 33 mm; in data set [1] (setting [4]), 55 mm.

For `CN(C)c1ccc(C(=O)O/N=C(\N)Cc2nc3ccccc3o2)cc1` [Compound 3, 2-(benzo[d]oxazol-2-yl)-N′-(4-(dimethylamino)benzoyloxy)acetimidamide], the melting point (in general, the temperature of the solid-liquid transition) was in the range of 165 to 166 °C. In the data set with Aspergillus flavus (setting [2]), the inhibition zone is 21 mm. In the data set on Aspergillus flavus (setting [3]), this molecule displayed an inhibition zone of 25 mm. Also, the inhibition zone with Aspergillus flavus (setting [4]) came out at 37 mm. Moreover, the antimicrobial activities result in the data set on different microbes was “excellent”. In addition, in the data set with Bacillus cereus (setting [2]), the inhibition zone worked out at 26 mm. This molecule had an inhibition zone in the data set with Bacillus cereus (setting [3]) of 28 mm. In the data set on Bacillus cereus (setting [4]), the inhibition zone turned out to be 41 mm. In the data set with Staphylococcus aureus (setting [2]), this molecule registered an inhibition zone of 17 mm. Besides, the inhibition zone with Staphylococcus aureus (setting [3]) worked out at 22 mm. This molecule also had an inhibition zone with Staphylococcus aureus (C = concentration of comp.) of 34 mm. In the data set with Pseudomonas aeruginosa (setting [2]), this molecule yielded an inhibition zone of 25 mm. The molecule also yielded an inhibition zone in the data set with Pseudomonas aeruginosa (setting [3]) of 28 mm. In addition, the inhibition zone with Pseudomonas aeruginosa (C =) was 39 mm. In the data set with Escherichia coli (setting [2]), this molecule came in with an inhibition zone of 27 mm. Moreover, the inhibition zone in the data set with Escherichia coli (setting [3]) worked out at 34 mm. Moreover, the inhibition zone in the data set with Escherichia coli (setting [4]) worked out at 49 mm. The inhibition zone in data set [1] (setting [2]) was found to be 25 mm. In data set [1] (setting [3]), this molecule showed an inhibition zone of 29 mm. This molecule also showed an inhibition zone in data set [1] (setting [4]) of 46 mm.
